Test results published in patent publication US20240368145A1, “METHODS FOR TREATING CANCER” (IMMUNIC AG, priority 2021, published 2024).

How the values were obtained:
[1] = tested on: NKX3.1 mRNA; assay: Expression of AR target genes (qRT-PCR) in 22Rv1: NKX3.1; assay type: cell-based; conditions: Homo sapiens; 22Rv1, 1 μM, 48h; relative to vehicle control (DMSO)
Method: (§1) The prostate cancer cell line 22Rv1 was treated for 48h with 1 μM Example compound 1, 1/1, 2/1, 2/2, 2/3, 2/4, 2/5, 2/6, 2/7, 2/8, 2/9 and 2/10 and reference compounds SR2211 and XY018. RNA was extracted using the RNA isolation kit XS (Macherey-Nagel) and following the manufacture's manual. RNA quantity was measured with the Nanodrop before reverse transcription using Superscript II (Invitrogen #100004925). For the quantitative real-time PCR with SYBR-Green (Qiagen #204074), the following primers were used:
(§2) qRT-PCR was performed using SYBR-Green (Qiagen #204074) reagents in a PCR cycler (Gorbett Research) Rotor Gene RG3000 with the following program: denaturation for 5′ at 95° C.; 40 cycles of 20″ at 95° C. and 15″ at 60° C.″ and at the end of the last cycle, the melting temperature of the products was determined by gradually increasing from 60° C. to 99° C. CT values from all samples were normalized to reference (housekeeping) genes using the mean CT value of the GAPDH and YWHAZ (reference genes). Next the values are put relative to the untreated control (vehicle/DMSO).

[2] = tested on: IFNγ; assay: Cytokine assay, human PBMC stimulated with PHA: IFNγ; assay type: cell-based; conditions: PHA-activated, 48 hours, read-out: IFNγ inhibition (IC50 range)
Method: (§3) Peripheral blood mononuclear cells (PBMC) from healthy human donors were purified using Accuspin™ System-Histopaque-1077 (Sigma) according to the protocol recommended by the manufacturer. Purified PBMC were then washed twice with phosphate-buffered saline (PBS) and resuspended in RPMI1640 culture medium supplemented with 10% dialyzed heat inactivated fetal calf serum, 1.5 mM L-glutamine, 100 U penicillin/mL and […] streptomycin/mL (all from PAN Biotech, Aidenbach, Germany). For stimulation, PBMC were seeded at 1×10^5 cells/well, activated with 2 gg/mL phytohaemagglutinin (PHA, Sigma) and incubated with the test compounds for 48 hours. IL-17A, IL-17F and INFγ were then determined in the culture supernatant using a Luminex BioPlex system, following the manufacturer's instructions (BioRad, Munich, Germany). To determine the IC50, compounds were titrated semilogarithmically.
(§4) Cytokines were determined in the aforementioned culture supernatant using the following methods: IL-17A was measured using the human homodimer IL-17A ELISA Ready Set Go Kit from cBioscience (Frankfurt, Germany); IL-17F using the human IL-17F ELI-Pair from Holzel Diagnostica GmbH (K51n, Germany); and IFNγ using the OptEIA human IFN-g ELISA from BD Bioscience (Heidelberg, Germany), all following the manufacturer's instructions.

[3] = tested on: IL-17A; assay: Cytokine assay, human PBMC stimulated with PHA: IL-17A; assay type: cell-based; conditions: PHA-activated, 48 hours, read-out: IL-17A inhibition (IC50 range)
Method: as §3, §4

[4] = tested on: AML cell line THP-1; assay: CellTiter-Blue proliferation assay, THP-1; assay type: cell-based; conditions: Homo sapiens, geometric mean relative IC50, 72 hours, read-out: IC50 range for cell line THP-1
Method: (§5) Aim of this study was to evaluate compounds of Example 1, 1/1, 2/2, 2/5 and 2/6 in a proliferation assays. The 5 test compounds were tested in a CellTiter-Blue® based proliferation assay in three AML cell lines (HL-60, THP-1 and MOLM-13). The compounds were tested at 10 concentrations in half-log increments (highest concentration 30 μM or 100 μM) in duplicates. The incubation period with the applied compounds was fixed to 72 hours.

[5] = tested on: KLK2 mRNA; assay: Expression of AR target genes (qRT-PCR) in 22Rv1: KLK2; assay type: cell-based; conditions: 22Rv1, 1 μM; for KLK2 mRNA level expression: 48 h; for mrna remaining at 1 µM: Homo sapiens; for mrna remaining at 1 µM / KLK2 mRNA expression: 48h, relative to vehicle control (DMSO)
Method: as §1, §2

[6] = tested on: full length AR (AR-FL) mRNA; assay: Androgen receptor RNA level expression (qRT-PCR) in 22Rv1: AR-FL; assay type: cell-based; conditions: 22Rv1, 1 μM, 48 h; for mrna remaining at 1 µM: Homo sapiens; for mrna remaining at 1 µM / AR-FL mRNA expression: normalized to untreated control (vehicle/DMSO)
Method: (§6) The prostate cancer cell line 22Rv1 was treated for 48 h with 1 μM Example compound 1, 1/1, 1/2, 2/1, 2/2, 2/3, 2/4, 2/5, 2/6, 2/7, 2/8, 2/9 and 2/10 and the reference compounds SR2211 and XY018 (Nat. Med. 2016; 22:488). RNA was extracted using the RNA isolation kit XS (Macherey-Nagel) and following the manufacture's manual. RNA quantity was measured with the Nanodrop before reverse transcription using Superscript II (Invitrogen #100004925). For the quantitative real-time PCR with SYBR-Green (Qiagen #204074), the following primers were used: AR forward-ACATCAAGGAACTCGATCGTATCATTGC and reverse-TTGGGCACTTGCACAGAGAT, AR-V7: forward-CCATCTTGTCGTCTTCGGAAATGTTATGAAGC and reverse-TTTGAATGAGGCAAGTCAGCCTTTCTT. The qRT-PCR proceeded as follows: denaturation for 5 min 95° C.; 40 cycles of “20 sec at 95° C. and 15 sec at 60° C.” and at the end of the last cycle, the melting temperature of the products was determined by gradually increasing it from 60° C. to 99° C. CT values from all samples were normalized to two different reference (housekeeping) genes using the mean CT value of the GAPDH and YWHAZ (reference genes). Next the values are normalized to the untreated control (vehicle/DMSO).

[7] = tested on: AR-V7 mRNA; assay: Androgen receptor RNA level expression (qRT-PCR) in 22Rv1: AR-V7; assay type: cell-based; conditions: 22Rv1, 1 μM, 48 h; for mrna remaining at 1 µM: Homo sapiens
Method: as §6

[8] = tested on: IL-17F; assay: Cytokine assay, human PBMC stimulated with PHA: IL-17F; assay type: cell-based; conditions: PHA-activated, 48 hours, read-out: IL-17F inhibition (IC50 range)
Method: as §3, §4

[9] = tested on: AML cell line HL-60; assay: CellTiter-Blue proliferation assay, HL-60; assay type: cell-based; conditions: Homo sapiens, geometric mean relative IC50, 72 hours, read-out: IC50 range for cell line HL-60
Method: as §5

[10] = tested on: FKBP5 mRNA; assay: Expression of AR target genes (qRT-PCR) in 22Rv1: FKBP5; assay type: cell-based; conditions: Homo sapiens; 22Rv1, 1 μM, 48h; relative to vehicle control (DMSO)
Method: as §1, §2

[11] = tested on: AML cell line MOLM-13; assay: CellTiter-Blue proliferation assay, MOLM-13; assay type: cell-based; conditions: Homo sapiens, geometric mean relative IC50, 72 hours, read-out: IC50 range for cell line MOLM-13
Method: as §5

[12] = tested on: CAMKK2 mRNA; assay: Expression of AR target genes (qRT-PCR) in 22Rv1: CAMKK2; assay type: cell-based; conditions: 22Rv1, 1 μM, 48h; relative to vehicle control (DMSO)
Method: as §1, §2

[13] = tested on: AR-V7 protein; assay: Androgen receptor protein expression (western blot) in 22Rv1: AR-V7; assay type: cell-based, human; conditions: 22Rv1, 6 μM, 48 h; western blot quantification
Method: (§7) After 48 h, cell were lysed using cell extraction buffer (Life Technologies #FNN0011) for western blot. […] The membrane is then incubation for 1 hour in blocking buffer (5% milk in 20 mM Tris, 150 mM NaCl, pH 7.5, 0.05% Tween 20 [TBS-T]). After this incubation, the primary antibody is added and incubated overnight at 4° C. After washing, the membrane was incubated with the secondary antibody for 1 h. Visualization of the bands was performed using the femto maximum sensitivity substrate reagent and the luminescence signal recorded with the Fusion FX7 (Vilber). For protein quantification, InageJ was used.

[14] = tested on: AR-FL protein; assay: Androgen receptor protein expression (western blot) in 22Rv1: AR-FL; assay type: cell-based, human; conditions: 22Rv1, 6 μM, 48 h; western blot quantification
Method: as §7

[15] = normalized to untreated control (vehicle/DMSO)

IC50 [2] [nM]	IC50 [3] [nM]	IC50 [4] [nM]	full length AR (AR-FL) mRNA expression [6]	AR-V7 mRNA expression [7]	IC50 [8] [nM]	IC50 [9] [nM]	IC50 [11] [nM]	AR-FL mRNA expression [6]	AR-V7 mRNA expression [7, 15]	SMILES	mrna remaining at 1 µM [1] [%]	KLK2 mRNA level expression [5]	mrna remaining at 1 µM [5] [%]	mrna remaining at 1 µM [6] [%]	mrna remaining at 1 µM [7, 15] [%]	mrna remaining at 1 µM [10] [%]	CAMKK2 mRNA expression [12]	KLK2 mRNA expression [5]	AR-V7 protein level [13]	AR-FL protein level [14]
< 25	< 25	< 10	strong reduction	strong reduction	< 25	< 10	< 10	–	–	C[C@]1(O)C[C@@H](n2ncc(-c3onc(-c4c(F)cccc4Cl)c3-c3ncccn3)c2C(F)(F)F)C1 [2/5]	30.7	strong inhibition	37.7	45.4	23.9	27.1	–	–	–	–
< 25	< 25	10 to 100	strong reduction	strong reduction	< 25	< 10	< 10	–	–	C[C@]1(O)C[C@@H](n2ncc(-c3onc(-c4ccccc4Cl)c3-c3ncccn3)c2C(F)(F)F)C1 [2/6]	44	strong inhibition	42.8	54.9	30.4	33.8	–	–	–	–
< 25	< 25	10 to 100	strong reduction	strong reduction	< 25	< 10	< 10	–	–	COC(=O)c1c(-c2c(F)cccc2Cl)noc1-c1cnn([C@H]2C[C@@](C)(O)C2)c1C(F)(F)F [Example 2/2]	25.5	strong inhibition	34.1	38	19.9	24.6	–	–	–	–
–	–	–	–	–	–	–	–	1.058	1.059	OC(c1ccc(-c2ccc(CN3CCN(Cc4ccncc4)CC3)cc2)c(F)c1)(C(F)(F)F)C(F)(F)F [SR2211, reference compound]	–	–	–	–	–	–	1.009	1.284	0.728	0.675
–	–	–	–	–	–	–	–	1.111	1.237	O=C(Cc1ccccc1[N+](=O)[O-])Nc1ccc(-c2ccc(C(O)(C(F)(F)F)C(F)(F)F)cc2F)cc1 [XY018, reference compound]	–	–	–	–	–	–	0.959	0.831	0.653	0.588
